# Data: patent publication US20230174633A1, “METHODS AND COMPOSITIONS FOR MODULATING LIPID STORAGE IN ADIPOSE TISSUE” (MEMORIAL SLOAN KETTERING CANCER CENTER, priority 2020, published 2023)
# Key:
# C57B1/6J mice = assay: Treatment of C57Bl/6J mice fed 45% or 10% lipid diet (diet-induced obesity); type: in vivo, mouse; conditions: 1,200 mg PLX5622/kg of food
# Excerpt: (§1) Mice and diets. All experiments on mice were realized in accordance with an animal license issued by the Institutional Review Board (IACUC 15-04-006) from MSKCC. All mice were maintained under SPF conditions. C57B1/6J male mice were purchased from Jackson laboratories. Rosa26^LSL-Tomato (Stock No: 007908), Rosa26^LSL-^YFP (Stock No:006148), Rosa26^mTmG (Stock No: 007576) and Lepr^-/-(db/db) (herein referred to as Lepr^-/-; Stock No: 000697) mice were purchased from Jackson laboratories and bred in house. Csf1r^Cre, Csf1r^MeriCreMer, and Csf1r^fl/fl mice were obtained from J W. Pollard (The University of Edinburgh), Cx3cr1^GFP/+ mice were obtained from Drs. Dan Littman (NYU Skirball institute), Flt3^Cre mice were obtained from Thomas Boehm (Max Planck institute) and Tnfrsf11a^Cre mice were obtained from Y. Kobayashi (Matsumoto Dental University). Ccr2^-/- mice were obtained from IF. Charro (UCSF) Csf1r^-/- mice were backcrossed to FVB/NJ for more than 10 generations. Mice were fed ad libitum a rodent irradiated diet containing 45% kcal from lipids (Research Diets Inc., reference D12451i) or 10% kcal from lipids (Research Diets Inc., reference D12450hi) for 8 weeks. In mice supplemented with the CSF-1R inhibitor PLX5622 (Plexxikon), the aforementioned diets were impregnated with 1200 mg of inhibitor per kg of food. In the experiment named 45%>10% the mice were fed 45% lipid diet for 8 weeks then 10% lipid diet for 2 weeks and compared to mice fed 10% lipid diet for 10 weeks. Mice were weighed weekly. Tnfrsf11a^Cre; Csflr^f/f and Csf1r^Cre; Csf1r^f/f mice are osteopetrotic and as such lack teeth. To prevent confounding systemic effects due to nutritional intake problems, the Tnfrsf11a^Cre; Csf1r^f/f Csf1r^Cre; Csf1r^f/f and control littermates were fed a nutritionally fortified water gel. The nutritional gels were replaced every 12 hours.
# Glucose and insulin tolerance tests were performed as described; in brief, for the glucose tolerance test, the mice were fasted for 4h before experiment, but had water ad libitum. The weight and glycaemia were measured, and the mice were injected intraperitoneally with 2 g glucose (Thermo Scientific) per kg of body weight. Following the glucose injection, glycemia was measured every 30 min for 2 hours. For the insulin tolerance test, the mice were fasted for 4h before experiment, but had water ad libitum. The weight and the glycaemia were measured, and the mice were injected with 0.25U insulin (Sigma) per kg of body weight. Following the glucose injection, glycemia was measured every 30 min for 2 hours. To measure the glycaemia, the tail of the animals was pricked with a 27G needle and a drop of blood was placed on the glucometer (ACCU-CHECK AVIVA, Roche). […]
# (§2) Metabolic analysis of Leptin receptor deficient mice, PLX5622-treated mice, anti-PDGFcc treated mice, and control C57Bl/6J mice. Animals were individually housed in a temperature controlled Promethion Metabolic Screening System (Sable Systems International, NV). Food intake was acquired gravimetrically and ambulatory activity was acquired using a laser matrix. Mice were acclimated to this environment on a 12 hr light/dark cycle for 48 hr before the indicated length of recording (24 hr to 120 hr) period began. Fecal bomb calorimetry was performed on feces collected during the last day of metabolic cage recording period, dehydrated in an oven at 60C for 48 hr, then combusted in technical duplicates with a Parr 6725 Semimicro Calorimeter to determine gross caloric intake.
# Infrared imaging of mice. Infrared images were taken on the last day of metabolic analysis using a FLIR T430sc Infrared Camera. These images were into RAW files and then analyzed in AMIDE. A box was drawn over region of interest (ROI); interscapular (70×30), inguinal (35×35) and dorsal. The 10% top warmest pixels were used for interscapular and inguinal quantifications. The 20% top warmest pixels were used for dorsal quantifications. […]
# Lepr^-/- (db/db) mice = assay: PLX5622 treatment of leptin-receptor deficient mice that spontaneously develop obesity; type: in vivo, mouse
# Excerpt: as §1, §2
# Triglyceride Measurement for Mice. To measure triglycerides, ~ 100 mg of mouse liver was homogenized in 100 µl of PBS + 0.05% Tween 20. Triglyceride was then measured using the free glycerol reagent (Sigma; F6428) as described in the manufacturer’s protocol and normalized to the liver weight.
# To quantify the size of the adipocytes, the software image J was used. Regions of interest (ROI) were drawn following the cellular membrane of the adipocytes and the surface of the ROI was determined by the software. 50 adipocytes were measured per field of view of the eWAT. Adipocytes were measured on 3 fields of view, taken with N-Achroplan 10x/0.25 objective. Crown-like structures (CLS) were quantified on the same fields of view. Crown like structures were defined as microscopic foci of dying adipocytes surrounded by macrophages as visualized by H&E staining.
# [1] = test system: epididymal fat pad explants; assay: eWAT (epididymal fat pad) explants cultured ex vivo, lipid storage by adipocytes; type: cell-based, mouse; conditions: Tnfrsf11a^Cre; Csf1r^f/f fat pads; 100 ng/ml PDGFcc, 10 ng/ml VEGFb or 10 ng/ml IGF1 on days 0, 3, 6
# Method: Whole Mount Imaging and Cytology of Sorted Macrophages. For whole mount immunofluorescence imaging, after anesthesia and blood collection by cardiac puncture, the mice were perfused with 10 mL PBS at room temperature. Approximately 3 mm^3 pieces of the tissue were incubated in 4% paraformaldehyde (PFA) (Electron Microscopy) diluted in PBS for 30 min at room temperature with agitation, then rinsed with PBS and stained with directly conjugated antibodies for 30 minutes. Then the samples were rinsed with PBS 3× and mounted on cavity slides (Sigma) with Fluoromount G (eBioscience). Approximately 50 µm thick Z-stack and tile scan were acquired with LSM880 Zeiss microscope with 40x/1.3 (oil). Image analysis was performed using Imaris (Bitplane) software.
# In Vitro Epididymal Adipose Tissue Explants. Epididymal fat pads of 4-day-old Tnfrsf11a^Cre+Csf1r^fl/fl mice and littermates were dissected and incubated in RPMI with 10% heat de-activated FBS at 37° C. for 14 days. Fresh medium was added to the explants on day 7. At the termination of the experiment, the explants were fixed in 4% PFA for 30 minutes at room temperature with agitation and then rinsed in PBS and permeabilized for 15 minutes in PBS + 0.03% Triton. Subsequently, the explants were blocked with 2% BSA and stained with directly conjugated antibodies. To remove macrophages from wt epididymal fat pads in vitro, 15 µM of the CSF1R inhibitor PLX5622 was added to explants on day 0 and 7 following the addition of fresh medium. For the in vitro rescue experiments, epididymal fat pads of Tnfrsf11a^Cre; Csf1r^fl/fl mice and littermates as well as […] treated fat pads were supplemented with 100 ng/ml of recombinant mouse PDGFcc (R&D systems), 10 ng/ml of recombinant mouse VEGFb (R&D systems), or 10 ng/ml of recombinant mouse IGF1 (R&D systems) three times on days 0, 3, and 6.
# PDGFRA/A homodimers = PDGFRA/A homodimers (Homo sapiens, UniProt P16234); conditions: Gilbertson et al. 2001; cited from earlier work
# PDGFRA/A homodimers, sequence (P16234 24-1089, species assumed): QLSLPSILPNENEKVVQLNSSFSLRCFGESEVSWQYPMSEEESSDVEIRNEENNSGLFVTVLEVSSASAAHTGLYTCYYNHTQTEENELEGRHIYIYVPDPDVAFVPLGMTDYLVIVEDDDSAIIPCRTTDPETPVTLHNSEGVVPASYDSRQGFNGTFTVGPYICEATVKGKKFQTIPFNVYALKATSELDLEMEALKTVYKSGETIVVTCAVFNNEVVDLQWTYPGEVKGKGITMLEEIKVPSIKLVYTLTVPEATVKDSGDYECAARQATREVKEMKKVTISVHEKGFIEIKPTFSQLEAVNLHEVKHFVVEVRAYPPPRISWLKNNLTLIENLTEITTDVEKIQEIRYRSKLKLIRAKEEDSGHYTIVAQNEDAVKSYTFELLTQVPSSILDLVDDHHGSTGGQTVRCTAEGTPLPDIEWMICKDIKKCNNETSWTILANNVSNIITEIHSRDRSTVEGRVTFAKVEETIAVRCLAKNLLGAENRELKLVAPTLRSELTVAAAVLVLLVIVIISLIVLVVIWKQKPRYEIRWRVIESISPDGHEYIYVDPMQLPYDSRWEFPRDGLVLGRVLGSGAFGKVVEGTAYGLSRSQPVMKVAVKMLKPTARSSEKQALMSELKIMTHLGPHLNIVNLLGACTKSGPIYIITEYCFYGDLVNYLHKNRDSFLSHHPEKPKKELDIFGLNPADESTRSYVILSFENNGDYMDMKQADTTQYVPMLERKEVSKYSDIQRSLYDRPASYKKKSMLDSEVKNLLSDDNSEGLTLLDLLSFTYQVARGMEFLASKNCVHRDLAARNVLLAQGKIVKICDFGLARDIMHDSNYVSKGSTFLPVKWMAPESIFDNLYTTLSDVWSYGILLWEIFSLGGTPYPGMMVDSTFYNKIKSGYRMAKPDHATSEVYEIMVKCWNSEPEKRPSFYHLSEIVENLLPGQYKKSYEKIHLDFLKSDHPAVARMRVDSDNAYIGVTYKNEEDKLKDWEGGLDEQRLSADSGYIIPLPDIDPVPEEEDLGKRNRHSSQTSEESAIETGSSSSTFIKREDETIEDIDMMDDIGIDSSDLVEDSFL
# PDGFRB/B homodimers = PDGFRB/B homodimers (Homo sapiens, UniProt P09619); conditions: Gilbertson et al. 2001; cited from earlier work
# PDGFRB/B homodimers, sequence (P09619 33-1106, species assumed): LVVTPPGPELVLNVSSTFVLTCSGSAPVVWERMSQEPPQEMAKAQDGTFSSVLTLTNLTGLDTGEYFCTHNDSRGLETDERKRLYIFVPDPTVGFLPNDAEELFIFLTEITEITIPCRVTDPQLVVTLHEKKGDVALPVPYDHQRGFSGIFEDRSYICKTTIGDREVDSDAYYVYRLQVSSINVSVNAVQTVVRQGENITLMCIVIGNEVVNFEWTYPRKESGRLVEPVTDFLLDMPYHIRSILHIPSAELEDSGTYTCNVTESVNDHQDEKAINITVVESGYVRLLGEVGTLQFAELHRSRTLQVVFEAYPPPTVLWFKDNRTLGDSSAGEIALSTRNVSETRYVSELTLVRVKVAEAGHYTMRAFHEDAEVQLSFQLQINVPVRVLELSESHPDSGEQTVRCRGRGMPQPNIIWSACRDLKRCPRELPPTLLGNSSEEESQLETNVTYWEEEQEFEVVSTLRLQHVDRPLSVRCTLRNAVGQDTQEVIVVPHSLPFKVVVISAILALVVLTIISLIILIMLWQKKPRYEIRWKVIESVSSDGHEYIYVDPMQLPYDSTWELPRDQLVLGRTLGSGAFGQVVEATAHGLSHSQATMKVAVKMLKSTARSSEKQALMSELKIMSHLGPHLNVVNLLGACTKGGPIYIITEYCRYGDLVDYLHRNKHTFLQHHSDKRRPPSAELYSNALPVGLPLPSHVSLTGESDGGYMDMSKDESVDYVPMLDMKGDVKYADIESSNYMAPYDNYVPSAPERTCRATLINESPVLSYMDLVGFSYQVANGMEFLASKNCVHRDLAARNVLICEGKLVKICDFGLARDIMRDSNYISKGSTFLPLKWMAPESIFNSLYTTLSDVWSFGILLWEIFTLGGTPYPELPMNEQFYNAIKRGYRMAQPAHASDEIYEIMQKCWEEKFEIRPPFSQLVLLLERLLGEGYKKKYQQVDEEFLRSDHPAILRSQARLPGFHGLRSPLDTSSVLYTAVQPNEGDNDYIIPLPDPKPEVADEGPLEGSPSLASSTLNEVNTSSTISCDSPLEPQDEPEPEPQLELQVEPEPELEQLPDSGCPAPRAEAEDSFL
# [2] = 10% lipid diet + PLX5622 for 8 weeks
molecule,measurement,setting,value
COc1ncc(F)cc1CNc1ccc(Cc2c[nH]c3ncc(C)cc23)c(F)n1 [PLX5622],Dio2 expression in the iBAT,C57B1/6J mice,increased
same,F4/80+ Tim4- and Tim4+ macrophages,C57B1/6J mice,lacked both F4/80^+ Tim4^- and Tim4^+ macrophages
same,Ucpl expression in the iBAT,C57B1/6J mice,increased
same,TNF/IL1 production,C57B1/6J mice; 45% lipid diet,protected against
same,hepatic steatosis,C57B1/6J mice; 45% lipid diet,protected against
same,metabolic syndrome,C57B1/6J mice; 45% lipid diet,protected against
same,Pdgfcc expression in fat pads,C57B1/6J mice; high fat diet,did not increase
same,adipocyte hypertrophy,C57B1/6J mice; high fat diet,did not develop adipocyte hypertrophy
same,visceral and subcutaneous white adipose tissue mass,C57B1/6J mice; high fat diet,did not increase
same,weight gain,C57B1/6J mice; high fat diet,gained less weight than controls
same,Pdgfc expression in adipose tissue,Lepr^-/- (db/db) mice; 10% lipid diet + PLX5622,decreased
same,adipocyte size,Lepr^-/- (db/db) mice; 10% lipid diet + PLX5622,decreased
same,liver inflammation,Lepr^-/- (db/db) mice; 10% lipid diet + PLX5622,decreased
same,adipose tissue mass,Lepr^-/- (db/db) mice; [2],decreased
same,weight gain,Lepr^-/- (db/db) mice; [2],decreased
same,Dio2 expression,"Lepr^-/- (db/db) mice; iBAT, PLX5622 in diet",increased
same,Ucpl expression,"Lepr^-/- (db/db) mice; iBAT, PLX5622 in diet",increased
IGF1: recombinant mouse IGF1 (R&D systems),rescue of bodipy staining (lipid storage),[1],not
"PDGFcc: mature PDGF-CC protein, growth factor domain dimer released by removal of the CUB domain; exemplary SEQ ID NO: 2 (protein, listed as Homo sapiens, homodimer) VVDLNLLTEEVRLYSCTPRNFSVSIREELKRTDTIFWPGCLLVKRCGGNCACCLHNCNECQCVPSKVTKKYHEVLQLRPKTGVRGLHKSLTDVALEHHEECDCVCRGSTGG",binding to PDGFRA/A homodimers,PDGFRA/A homodimers,high affinity
same,interaction with PDGFRB/B homodimers,PDGFRB/B homodimers,fails to interact
"recombinant PDGFcc: Recombinant mouse PDGFcc, R&D systems Cat# 1447-PC-025/CF, active/cleaved form, SEQ ID NO: 3 (protein, listed as Mus sp.) VVNLNLLKEEVKLYSCTPRNFSVSIREELKRTDTIFWPGCLLVKRCGGNCACCLHNCNECQCVPRKVTKKYHEVLQLRPKTGVKGLHKSLTDVALEHHEECDCVCRGNAGG",rescue of bodipy staining (lipid storage),[1],rescues bodipy staining to control levels
"VEGFb: recombinant mouse VEGFb (R&D systems) (protein, UniProt P49766 22-207, looked up) Vascular endothelial growth …: PVSQFDGPSHQKKVVPWIDVYARATCQPREVVVPLSMELMGNVVKQLVPSCVTVQRCGGCCPDDGLECVPTGQHQVRMQILMIQYPSSQLGEMSLEEHSQCECRPKKKESAVKPDRVAIPHHRPQPRSVPGWDSTPGASSPADIIHPTPAPGSSARLAPSAVNALTPGPAAAAADAAASSIAKGGA",rescue of bodipy staining (lipid storage),[1],can also rescue lipid storage
